Source: US20230184746A1, “HIGH-SENSITIVITY DETECTION OF GPCR ACTIVITY AND USES THEREOF” (Firmenich Incorporated, priority 2020, published 2023)
“Also recorded” adds a separate entry of the source.

What was measured:
Format in all cases: cell-based
[1] = biological target: T1, human sweet taste receptor (hT1R2/hT1R3) (Homo sapiens, UniProt Q7RTX0+Q8TE23, C757R/I191V/I486V/R317G); assay: Bias plotting analysis: DMR assay with R2/R3 U2OS cells vs FLIPR-calcium mobilization assay with R2/R3 U2OS cells expressing Gα15; conditions: equimolar concentrations; data normalized to 1 mM sucralose; relative to other sweeteners
T1 construct: expressed in transfected cells
T1 sequence (Q8TE23 20-839 I191V/R317G/I486V): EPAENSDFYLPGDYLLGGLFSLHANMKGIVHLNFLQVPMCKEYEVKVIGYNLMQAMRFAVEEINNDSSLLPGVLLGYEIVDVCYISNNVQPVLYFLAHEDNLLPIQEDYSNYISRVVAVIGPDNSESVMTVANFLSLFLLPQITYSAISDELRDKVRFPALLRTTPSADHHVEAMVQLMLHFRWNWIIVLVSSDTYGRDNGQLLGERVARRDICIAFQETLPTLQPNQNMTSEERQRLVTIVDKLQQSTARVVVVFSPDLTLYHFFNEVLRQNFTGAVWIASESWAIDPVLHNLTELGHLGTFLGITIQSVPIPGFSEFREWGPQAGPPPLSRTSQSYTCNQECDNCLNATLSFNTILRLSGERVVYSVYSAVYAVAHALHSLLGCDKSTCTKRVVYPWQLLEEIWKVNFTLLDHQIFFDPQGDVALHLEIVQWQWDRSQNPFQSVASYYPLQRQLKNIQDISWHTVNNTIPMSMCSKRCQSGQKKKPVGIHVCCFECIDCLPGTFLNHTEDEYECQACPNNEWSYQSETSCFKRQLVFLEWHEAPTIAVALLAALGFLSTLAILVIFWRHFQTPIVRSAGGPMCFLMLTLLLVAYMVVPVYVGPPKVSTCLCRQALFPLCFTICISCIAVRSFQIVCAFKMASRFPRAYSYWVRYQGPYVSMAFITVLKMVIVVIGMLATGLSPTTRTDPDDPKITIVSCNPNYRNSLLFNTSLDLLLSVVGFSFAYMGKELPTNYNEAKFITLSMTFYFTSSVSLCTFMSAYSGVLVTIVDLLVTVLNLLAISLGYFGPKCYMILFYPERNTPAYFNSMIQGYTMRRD
T1 sequence (Q7RTX0 21-852 C757R): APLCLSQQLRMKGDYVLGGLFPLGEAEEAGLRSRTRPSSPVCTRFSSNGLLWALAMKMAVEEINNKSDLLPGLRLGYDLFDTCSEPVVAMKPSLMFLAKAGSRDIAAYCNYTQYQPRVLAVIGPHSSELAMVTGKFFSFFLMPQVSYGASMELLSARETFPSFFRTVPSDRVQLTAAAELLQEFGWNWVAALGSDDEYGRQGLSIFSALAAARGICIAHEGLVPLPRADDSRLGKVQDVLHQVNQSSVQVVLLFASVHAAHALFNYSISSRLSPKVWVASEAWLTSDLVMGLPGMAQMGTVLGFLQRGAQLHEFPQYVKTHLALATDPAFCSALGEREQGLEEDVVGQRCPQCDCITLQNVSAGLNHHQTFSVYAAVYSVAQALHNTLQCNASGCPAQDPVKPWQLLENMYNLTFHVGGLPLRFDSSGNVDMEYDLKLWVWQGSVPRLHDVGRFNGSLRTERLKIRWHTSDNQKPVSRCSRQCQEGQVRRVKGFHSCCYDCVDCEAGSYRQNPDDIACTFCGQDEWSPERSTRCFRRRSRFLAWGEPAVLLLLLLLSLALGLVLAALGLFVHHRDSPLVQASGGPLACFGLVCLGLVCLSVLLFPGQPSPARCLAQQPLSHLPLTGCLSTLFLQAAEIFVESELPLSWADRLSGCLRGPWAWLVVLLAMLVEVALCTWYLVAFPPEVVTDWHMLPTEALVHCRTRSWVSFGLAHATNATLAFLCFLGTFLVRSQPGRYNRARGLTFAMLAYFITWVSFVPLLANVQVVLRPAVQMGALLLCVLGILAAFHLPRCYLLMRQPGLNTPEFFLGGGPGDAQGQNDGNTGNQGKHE
Description: (§1) Untransfected U2OS cells were cultured at 37° C. and 5% CO2 in McCoy's 5A medium (modified, GIBCO#16600) supplemented with 10% fetal bovine serum and penicillin/streptomycin. Plasmids encoding hT1R2 in pEAK10-puromycin and hT1R3 in pcDNA3.1-zeocin were linearized and transfected into U2OS cells followed by dilution and double selection in growth medium plus 0.5 μg/m1puromycin and 100 μg/mlzeocin. Individual colonies were expanded and transiently transfected with a Gα6gust25 expression construct to identify functional clones using sucralose as the agonist in a Ca2+ imaging assay. […] The lidded Epic® 384 microplate and polypropylene compound plate (Corning) were loaded into the carousel of the Epic® reader, the target plate was washed with DMSO matched D-PBS using the Corning Epic® Liquid Handling Accessory (LHA) and equilibrated in 25 μL of DMSO matched D-PBS for 90 minutes. After recording the baseline activity for 5 to 8 minutes, 25 μL of 2× concentrated solution of sweetener, agonist or a mixture of agonist and modulator, diluted in D-PBS, was added using the LHA and the DMR responses which measures a shift in the resonance wavelength, were monitored for an additional 30 minutes. […]
(§2) In FIG. 2A known sweeteners and new agonists were evaluated in the DMR assay with R2/R3 U2OS cells using a dose-response analysis. […]

[2] = biological target: T1, human sweet taste receptor (hT1R2/hT1R3); assay: DMR assay (Epic reader) with R2/R3 U2OS cells; conditions: increasing concentrations, no overexpressed G protein
Description: as §1, §2

parental U2OS cells = assay: DMR assay (Epic reader) with parental U2OS cells; conditions: parental (untransfected) U2OS cells, increasing concentrations
Description: as §1, with “assay. […] (R2/R3 U2OS cells) were seeded on Epic®384 microplates (Corning) at a density of 16,000 cells/well in 40 pt of assay media using a multidrop (Thermo Scientific).” for “assay.”

Row | SMILES | Bias between FLIPR assay and DMR (EPIC) assay [1] | DMR signal (shift in resonance wavelength) [2] | DMR signal (shift in resonance wavelength) (parental U2OS cells)
1 | COC(=O)[C@H](Cc1ccccc1)NC(=O)[C@H](CC(=O)O)NCCC(C)(C)C [Neotame] | more active in the FLIPR assay; also recorded: clear bias for the FLIPR assay | – | –
2 | CCCOc1ccc([N+](=O)[O-])cc1N [P-4000] | more active in the FLIPR assay; also recorded: clear bias for the FLIPR assay | – | –
3 | OC[C@H]1O[C@H](O[C@]2(CCl)O[C@H](CCl)[C@@H](O)[C@@H]2O)[C@H](O)[C@@H](O)[C@H]1Cl [sucralose] | – | positive DMR signal | does not cause a comparable positive DMR signal
